These results are taken from US20260274861A1, “FUSED RING COMPOUND, PREPARATION METHOD THEREFOR AND MEDICINAL APPLICATION THEREOF” (JIANGSU HENGRUI PHARMACEUTICALS CO., LTD., priority 2022, published 2026).

Molecules are shown by their SMILES.

Data set [1] has as its system ERK phosphorylation in AGS cells. The experiment in a line: Inhibition of ERK phosphorylation in AGS cells (HTRF method). Format: cell-based. The following applies: Homo sapiens, 1 h incubation. How it is done:
In the experiment, the inhibitory effects of the compounds of the present disclosure on the KRAS target were evaluated by assessing the inhibitory effects of the compounds on ERK phosphorylation in cells and based on IC50 values.
AGS cells were cultured in an RPMI1640 (Hyclone, SH30809.01) complete culture medium containing 10% fetal bovine serum. On the first day of the experiment, the AGS cells were seeded into a 96-well plate with a complete culture medium at a density of 40,000 cells/well, with each well containing 190 μL of a cell suspension. The plate was incubated overnight in a 37° C., 5% CO2 cell incubator.
The next day, the test compounds, serially diluted in a complete culture medium, were added at 10 μL/well. The final concentrations of the compounds were 9 concentration points obtained by 5-fold serial dilution from 10 μM. A blank control containing 0.5% DMSO was set. The plate was incubated in a 37° C., 5% CO2 cell incubator for 1 h. After the incubation, the 96-well cell culture plate was taken out, and the culture medium was removed using a pipette. The plate was washed once by adding 200 μL of PBS (Shanghai BasalMedia Technologies Co., Ltd., B320) to each well. The PBS was removed using a pipette, and 50 μL of a lysis buffer (Cisbio, 64KL1FDF) containing a blocking reagent (Cisbio, 64KB1AAC) was added to each well. The plate was shaken on a shaker at room temperature for 40 min for lysis. After lysis, the lysate was pipetted for good uniformity. […]
On the third day, the fluorescence values at an excitation wavelength of 337 nm and emission wavelengths of 665 nm and 620 nm were obtained using a multi-mode microplate reader (PerkinElmer, EnVision).
The ratio of the fluorescence signal at 665 nm to the fluorescence signal at 620 nm was calculated for phosphorylated ERK1/2 and total ERK1/2 for the compounds at various concentrations, and IC50 values for the inhibitory activity of the compounds were calculated using Graphpad Prism software based on the concentrations of the compounds and the phosphorylated ERK1/2 ratios corrected using the total ERK1/2 ratios.
A general note: Time-resolved FRET reads energy transfer from a long-lived donor to a nearby acceptor.

Data set [2] has as its system AGS cells. The experiment in a line: Inhibition of 3D proliferation of AGS cells (CellTiter-Glo 3D). Format: cell-based. The following applies: Homo sapiens, 120 h, 5 days. How it is done: (§1) The inhibitory effects of the compounds of the present disclosure on the KRAS target were evaluated by assessing the inhibitory effects of the compounds of the present disclosure on the 3D proliferation of GP2d and AGS cells.
AGS cells were cultured in a complete culture medium, namely an RPM11640 medium (Hyclone, SH30809.01) containing 10% fetal bovine serum (Corning, 35-076-CV). On the first day of the experiment, the AGS cells were seeded into a 96-well low-adsorption plate (Corning, CLS7007-24EA) with a complete culture medium at a density of 1000 cells/well, with each well containing 90 μL of a cell suspension. The plate was centrifuged at 2000 rpm for 5 min at room temperature and then incubated overnight in a 37° C., 5% CO2 cell incubator.
(§2) The next day, the test compounds, serially diluted in a complete culture medium, were added at 10 μL/well. The final concentrations of the compounds for GP2d cells were 9 concentration points obtained by 5-fold serial dilution from 1 μM, and the final concentrations of the compounds for AGS cells were 9 concentration points obtained by 5-fold serial dilution from […]. A blank control containing 0.5% DMSO was set for both types of cells. The plates were incubated in a 37° C., 5% CO2 cell incubator for 5 days. On the seventh day, the 96-well cell culture plates were taken out, and 50 μL of the CellTiter-Glo® 3D Cell Viability Assay reagent (Promega, G^9682) was added to each well. The plates were shaken at room temperature in the dark for 25 min. The contents in the wells were pipetted for good uniformity, and 100 μL of the mixture was transferred from each well to a white impermeable 96-well plate (PerkinElmer, 6005290). The luminescence signal values were obtained using a multi-mode microplate reader (PerkinElmer, EnVision2105).

Data set [3] concerns GP2d cells. Briefly: Inhibition of 3D proliferation of GP2d cells (CellTiter-Glo 3D). Format: cell-based. The following applies: 120 h, 5 days. How it is done: as §1
GP2d cells were cultured in a complete culture medium, namely a DMEM/high glucose culture medium (Hyclone, SH30243.01) containing 10% fetal bovine serum (Corning, 35-076-CV). On the first day of the experiment, the GP2d cells were seeded into a 96-well low-adsorption plate (Corning, CLS7007-24EA) with a complete culture medium at a density of 1000 cells/well, with each well containing 90 μL of a cell suspension. The plate was centrifuged at 2000 rpm for 5 min at room temperature and then incubated overnight in a 37° C., 5% CO2 cell incubator.
as §2
On the technique in general: Cellular ATP, detected with luciferase, serves as a proxy for viable cell number.

Data set [4] can be described thus: Pharmacokinetic evaluation in balb/c nude mice after intragastric administration. In kind it is in vivo. The following applies: female, mouse, po, i.g., 40.0 mg/kg, plasma; for Vd/F: read-out: Apparent distribution volume Vz/F; for AUC(0-t): read-out: Area under curve AUC0-t; for CL/F: read-out: Clearance rate CL/F; for half-life: read-out: Half-life T½ (converted); for Cmax: read-out: Plasma concentration Cmax. How it is done:
Balb/c nude mice were used as test animals. After intragastric (i.g.) administration of example compounds to balb/c nude mice, the plasma concentrations at different time points were determined by the LC/MS/MS method. The pharmacokinetic behavior of the compounds of the present disclosure in balb/c nude mice was studied, and their pharmacokinetic profiles were evaluated.
Eighteen female balb/c nude mice, provided by Vital River Laboratory Animal Technology Co., Ltd. with production license SCXK (Zhejiang) 2019-0001, were evenly divided into 2 groups.
A certain amount of a test compound was weighed out, and 5% DMF+45% PG+50% (10% HS15-pH 7.4 buffer)+400 mpk SNAC was added to prepare a 4 mg/mL colorless clear solution.
The dose administered was 40.0 mg/kg, and the volume was 10 mL/kg.
0.1-mL blood samples were collected from the orbit before administration and 0.25 h, 0.5 h, 1.0 h, 2.0 h, 4.0 h, 6.0 h, 8.0 h, 11.0 h, and 24.0 h after administration. The blood samples were placed into EDTA-K2 anticoagulation test tubes and centrifuged at 10,000 rpm for 1 min (4° C.), and plasma was separated within 1 h and stored at −20° C. before analysis. The procedure starting from the blood collection to the centrifugation was performed under ice-bath conditions.
After administration of different concentrations of the test compounds, the plasma concentration of the test compounds in balb/c nude mice was determined: A 25-μL sample of the balb/c nude mouse plasma of each time point after administration was taken, and 200 μL of acetonitrile containing an internal standard (for compound 37, the internal standard was 100 ng/mL verapamil; for compound 39, the internal standard was 100 ng/mL diclofenac) was added. The mixture was vortexed for 5 min and centrifuged at 3700 rpm for 20 min, and the supernatant was mixed with water (1:1). 0.5-2 μL of the supernatant was taken and analyzed by LC/MS/MS. 4. Pharmacokinetic parameters

Data set [5] concerns AsPC-1 cells. The experiment in a line: Inhibition of 3D proliferation of AsPC-1 cells (CellTiter-Glo 3D). In kind it is cell-based. The following applies: Homo sapiens, ASPC1, 120 h, 5 days. How it is done:
On the first day of the experiment, well-grown AsPC-1 cells with 70%-80% confluency were digested and resuspended in an RPMI 1640 culture medium (Hyclone, SH30809.01) containing 10% FBS, and the cell density was adjusted to the desired level. The cell suspension was added to a U-shaped low-adsorption 96-well plate (Corning, CLS7007-24EA) at 90 μL/well, with a cell density of 1500 cells/well. The cell plate was centrifuged at 2500 rpm for 5 min and then incubated overnight in a 37° C., 5% CO2 incubator. The next day, 20 mM test compounds dissolved in DMSO were diluted to an initial concentration of 2 mM and then serially diluted 5-fold, and a total of 9 concentration points were obtained. Control wells were set using DMSO. The serially diluted compounds were then further diluted 20-fold with a culture medium. The test compounds, diluted with the culture medium, were added to the cell plate at 10 μL/well, with the final concentrations of the compounds being 9 concentration points obtained by 5-fold serial dilution from an initial concentration of 10 μM. Cell wells containing 0.5% DMSO were set as vehicle control wells, and wells containing only the culture medium and 0.5% DMSO were set as blank control wells. A duplicate well was set for each concentration of the compounds and the control wells, with the final concentration of DMSO in each well being 0.5%. The cell plate was centrifuged at 2500 rpm for 3 min and then incubated in a 37° C., 5% CO2 incubator for 5 days. On the seventh day, the 96-well cell culture plate was taken out, and 50 μL of the CellTiter-Glo® Luminescent 3D Cell Viability Assay reagent (Promega, G^9683) was added to each well. The plates were shaken at room temperature in the dark for 25 min. The contents in the wells were pipetted up and down for good uniformity, and then 100 μL of the mixture was transferred from each well to a white impermeable OptiPlate™-96-well plate (PerkinElmer, 6005290). The luminescence signal values were obtained using a multi-mode microplate reader (PerkinElmer, EnVision2105).
The inhibition rate was calculated using the formula: inhibition rate=(luminescence valuevehicle control well−luminescence valuetest compound)/(luminescence valuevehicle control well−luminescence valueblank control well)×100%. Curves were plotted using GraphPad Prism software based on the various concentrations of the compounds and the corresponding inhibition rates, and IC50 values for the compounds were calculated.

In general, IC50 refers to the concentration at which inhibition is half-maximal. Higher therefore signals lower potency. Broadly, the half-life is the time needed for the level to fall by half in the phase considered.

Take `CCc1c(F)ccc2cc(O)cc(-c3nc4c5c(nc(OCC6(CN7CCOCC7)CC6)nc5c3F)N3C[C@H]5CC[C@H](N5)[C@H]3CO4)c12` [Example 1, 5-Ethyl-6-fluoro-4-((5aS,6S,9R)-1-fluoro-12-((1-(morpholinomethyl)cyclopropyl)methoxy)-5a,6,7,8,9,10-hexahydro-5H-4-oxa-3,10a,11,13,14-pentaaza-6,9-methanonaphtho[1,8-ab]heptalen-2-yl)naphthalen-2-ol]: the IC50 in data set [1] came to 0.96 nM; in data set [2], 16.7 nM; in data set [3] it was 5.2 nM.
For `CCc1c(F)ccc2cc(O)cc(-c3nc4c5c(nc(OCC6(CN7C[C@@H]8C[C@H]7CO8)CC6)nc5c3F)N3C[C@H]5CC[C@H](N5)[C@H]3CO4)c12` [Example 2, 4-((5aS,6S,9R)-12-((1-(((15,4S)-2-Oxa-5-azabicyclo[2.2.1]heptan-5-yl)methyl)cyclopropyl)methoxy)-1-fluoro-5a,6,7,8,9,10-hexahydro-5H-4-oxa-3,10a,11,13,14-pentaaza-6,9-methanonaphtho[1,8-ab]heptalen-2-yl)-5-ethyl-6-fluoronaphthalen-2-ol], in data set [1], the 50% inhibitory concentration (IC50) came to 1.5 nM.
Regarding `C[C@@H]1Oc2nc(-c3ccc(F)c4sc(N)c(C#N)c34)c(F)c3nc(OCC4(CN5CCC(=CF)CC5)CC4)nc(c23)N2C[C@H]3CC[C@H](N3)[C@@H]12` [Example 37, 2-Amino-7-fluoro-4-((5S,5aS,6S,9R)-1-fluoro-12-((1-((4-(fluoromethylene)piperidin-1-yl)methyl)cyclopropyl)methoxy)-5-methyl-5a,6,7,8,9,10-hexahydro-5H-4-oxa-3,10a,11,13,14-pentaaza-6,9-methanonaphtho[1,8-ab]heptalen-2-yl)benzo[b]thiophene-3-carbonitrile], in data set [4], the Vd/F was determined as 78 L/kg, the AUC(0-t) is 5260 ng·h/mL, the CL/F was 113 mL/min/kg and the half-life was 7.95 h. Besides, the Cmax in data set [4] is 699 ng/mL. Also, half-maximal inhibition in data set [2] (IC50) was put at 4.7 nM. Besides, half-maximal inhibition in data set [3] (IC50) was put at 0.4 nM. Moreover, the IC50 in data set [5] came out at 2.4 nM.
As to `C[C@@H]1Oc2nc(-c3cc(N)cc(Cl)c3C(F)(F)F)c(F)c3nc(OCC4(CN5CCC(=C(F)F)CC5)CC4)nc(c23)N2C[C@H]3CC[C@H](N3)[C@@H]12` [Example 39, 3-Chloro-5-((5S,5aS,6S,9R)-12-((1-((4-(difluoromethylene)piperidin-1-yl)methyl)cyclopropyl)methoxy)-1-fluoro-5-methyl-5a,6,7,8,9,10-hexahydro-5H-4-oxa-3,10a,11,13,14-pentaaza-6,9-methanonaphtho[1,8-ab]heptalen-2-yl)-4-(trifluoromethyl)aniline], in data set [4], the Vd/F was 64.2 L/kg, the AUC(0-t) is 7210 ng·h/mL, the CL/F is 73.7 mL/min/kg and the half-life is 10.1 h. Also, the Cmax in data set [4] was 578 ng/mL. 6.7 nM corresponded to half-maximal inhibition in data set [2] (IC50). In data set [3], this molecule showed a concentration for half-maximal inhibition (IC50) of 0.17 nM. Besides, in data set [5], the IC50 came out at 2.6 nM.
For `CCc1c(F)ccc2cc(O)cc(-c3nc4c5c(nc(OCC6(CN7C[C@H]8C[C@@H]7CO8)CC6)nc5c3F)N3C[C@H]5CC[C@H](N5)[C@H]3CO4)c12` [Example 3, 4-((5aS,6S,9R)-12-((1-(((1R,4R)-2-Oxa-5-azabicyclo[2.2.1]heptan-5-yl)methyl)cyclopropyl)methoxy)-1-fluoro-5a,6,7,8,9,10-hexahydro-5H-4-oxa-3,10a,11,13,14-pentaaza-6,9-methanonaphtho[1,8-ab]heptalen-2-yl)-5-ethyl-6-fluoronaphthalen-2-ol], half-maximal inhibition in data set [1] (IC50) was put at 1.2 nM.
